According to ChEMBL document CHEMBL5463725, “Data for DCP probe BAY-277” (2023):

Tests used:
[1] = molecular target: Sodium-dependent dopamine transporter (Homo sapiens, UniProt Q01959); assay: GPCRScan assay: inhibition of DAT; design: radioligand conc. used [nm] 3.6 – 16.0, parental cells stable HEK
[2] = molecular target: T1, Muscarinic acetylcholine receptor M1 (Homo sapiens, UniProt P11229); assay: GPCRScan assay: inhibition of M1; design: radioligand conc. used [nm] 0.3 – 1.2, parental cells stable CHO
T1 sequence (P11229 whole entry): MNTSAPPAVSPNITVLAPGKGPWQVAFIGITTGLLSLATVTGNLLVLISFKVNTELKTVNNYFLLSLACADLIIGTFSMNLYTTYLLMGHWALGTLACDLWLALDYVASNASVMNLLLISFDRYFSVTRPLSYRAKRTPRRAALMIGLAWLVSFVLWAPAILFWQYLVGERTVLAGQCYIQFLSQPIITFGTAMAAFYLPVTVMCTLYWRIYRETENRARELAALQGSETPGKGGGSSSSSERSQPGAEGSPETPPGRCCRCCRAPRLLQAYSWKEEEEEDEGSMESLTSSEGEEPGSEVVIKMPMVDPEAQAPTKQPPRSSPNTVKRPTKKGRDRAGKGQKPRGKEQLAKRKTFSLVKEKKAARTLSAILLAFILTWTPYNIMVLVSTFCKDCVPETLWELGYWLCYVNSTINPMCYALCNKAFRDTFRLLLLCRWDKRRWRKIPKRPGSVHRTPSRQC

[3] = molecular target: Tyrosine-protein kinase SYK (Homo sapiens) (UniProt P43405); assay: Inhibition of Syk(h) at 10.0 µM in the Eurofins Kinase panel; conditions: Compound concentration 10.0 uM
[4] = molecular target: Serine/threonine-protein kinase pim-2 (Homo sapiens) (UniProt Q9P1W9); assay: Inhibition of Pim-2(h) at 10.0 µM in the Eurofins Kinase panel; conditions: Compound concentration 10.0 uM
[5] = molecular target: Tyrosine-protein kinase Lck (Homo sapiens) (UniProt P06239); assay: Inhibition of Lck(h) at 10.0 µM in the Eurofins Kinase panel; conditions: Compound concentration 10.0 uM
Sequence of Tyrosine-protein kinase Lck (Homo sapiens) (P06239 2-509 limits assumed): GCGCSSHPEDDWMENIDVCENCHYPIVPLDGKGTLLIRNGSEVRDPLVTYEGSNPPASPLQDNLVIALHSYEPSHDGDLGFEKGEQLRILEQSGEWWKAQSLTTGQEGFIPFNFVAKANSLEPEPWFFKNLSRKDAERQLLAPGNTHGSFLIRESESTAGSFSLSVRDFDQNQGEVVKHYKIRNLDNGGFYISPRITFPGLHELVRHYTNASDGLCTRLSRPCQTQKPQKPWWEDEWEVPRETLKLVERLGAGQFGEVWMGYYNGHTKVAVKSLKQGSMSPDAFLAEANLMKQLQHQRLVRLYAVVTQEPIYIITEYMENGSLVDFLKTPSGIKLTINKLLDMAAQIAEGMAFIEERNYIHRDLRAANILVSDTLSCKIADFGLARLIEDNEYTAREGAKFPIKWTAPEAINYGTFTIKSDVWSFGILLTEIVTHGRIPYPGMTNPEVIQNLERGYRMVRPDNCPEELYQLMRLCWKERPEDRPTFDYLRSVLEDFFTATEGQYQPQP

[6] = molecular target: Tyrosine-protein kinase Blk (Homo sapiens) (UniProt P51451); assay: Inhibition of Blk(h) at 10.0 µM in the Eurofins Kinase panel; conditions: Compound concentration 10.0 uM
[7] = molecular target: Beta-adrenergic receptor kinase 1 (Homo sapiens) (UniProt P25098); assay: Inhibition of GRK2(h) at 10.0 µM in the Eurofins Kinase panel; conditions: Compound concentration 10.0 uM
[8] = molecular target: Prostaglandin G/H synthase 1 (Homo sapiens) (UniProt P23219); assay: Inhibition of Cyclooxygenase COX-1 at 10.0 µM in the Eurofins Panlabs Safety Screen; conditions: Compound concentration 10.0 uM
[9] = molecular target: Prostaglandin G/H synthase 2 (Homo sapiens) (UniProt P35354); assay: Inhibition of Cyclooxygenase COX-2 at 10.0 µM in the Eurofins Panlabs Safety Screen; conditions: Compound concentration 10.0 uM
[10] = molecular target: Thromboxane-A synthase (Homo sapiens) (UniProt P24557); assay: Inhibition of Thromboxane Synthase at 10.0 µM in the Eurofins Panlabs Safety Screen; conditions: Compound concentration 10.0 uM
Sequence of Thromboxane-A synthase (Homo sapiens) (P24557 whole entry): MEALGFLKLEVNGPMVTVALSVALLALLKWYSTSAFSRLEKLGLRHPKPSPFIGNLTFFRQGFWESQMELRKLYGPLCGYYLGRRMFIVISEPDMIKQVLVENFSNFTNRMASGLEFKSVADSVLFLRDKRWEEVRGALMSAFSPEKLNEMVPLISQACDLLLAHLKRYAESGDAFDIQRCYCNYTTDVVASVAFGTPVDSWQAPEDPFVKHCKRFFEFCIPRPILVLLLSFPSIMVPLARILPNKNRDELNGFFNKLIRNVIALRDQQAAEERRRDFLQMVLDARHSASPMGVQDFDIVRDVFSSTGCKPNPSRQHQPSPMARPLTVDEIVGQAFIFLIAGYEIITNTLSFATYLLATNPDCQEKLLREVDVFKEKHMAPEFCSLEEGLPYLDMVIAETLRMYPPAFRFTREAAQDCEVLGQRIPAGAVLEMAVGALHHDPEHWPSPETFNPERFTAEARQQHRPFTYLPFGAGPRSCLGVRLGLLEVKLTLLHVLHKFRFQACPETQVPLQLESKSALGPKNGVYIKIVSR

[11] = molecular target: Adenosine receptor A2a (Homo sapiens) (UniProt P29274); assay: Inhibition of Adenosine A2A at 10.0 µM in the Eurofins Panlabs Safety Screen; conditions: Compound concentration 10.0 uM
Sequence of Adenosine receptor A2a (Homo sapiens) (P29274 whole entry): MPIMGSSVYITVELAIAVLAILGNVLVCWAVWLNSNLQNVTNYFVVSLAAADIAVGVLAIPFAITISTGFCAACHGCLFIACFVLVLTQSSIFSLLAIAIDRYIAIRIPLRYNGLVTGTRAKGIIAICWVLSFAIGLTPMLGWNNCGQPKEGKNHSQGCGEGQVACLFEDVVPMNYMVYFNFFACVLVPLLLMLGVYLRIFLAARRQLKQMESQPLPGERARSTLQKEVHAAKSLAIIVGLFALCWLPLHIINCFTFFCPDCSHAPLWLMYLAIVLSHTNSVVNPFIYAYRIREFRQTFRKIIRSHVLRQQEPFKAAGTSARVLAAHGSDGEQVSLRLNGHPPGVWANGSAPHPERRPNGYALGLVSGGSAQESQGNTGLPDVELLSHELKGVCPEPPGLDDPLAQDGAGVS

[12] = molecular target: Alpha-1A adrenergic receptor (Rattus norvegicus) (UniProt P43140); assay: Inhibition of Adrenergic alpha1A at 10.0 µM in the Eurofins Panlabs Safety Screen; conditions: Compound concentration 10.0 uM
[13] = molecular target: T2, Alpha-2A adrenergic receptor (Homo sapiens) (UniProt P08913); assay: Inhibition of Adrenergic alpha2A at 10.0 µM in the Eurofins Panlabs Safety Screen; conditions: Compound concentration 10.0 uM
T2 sequence (whole entry): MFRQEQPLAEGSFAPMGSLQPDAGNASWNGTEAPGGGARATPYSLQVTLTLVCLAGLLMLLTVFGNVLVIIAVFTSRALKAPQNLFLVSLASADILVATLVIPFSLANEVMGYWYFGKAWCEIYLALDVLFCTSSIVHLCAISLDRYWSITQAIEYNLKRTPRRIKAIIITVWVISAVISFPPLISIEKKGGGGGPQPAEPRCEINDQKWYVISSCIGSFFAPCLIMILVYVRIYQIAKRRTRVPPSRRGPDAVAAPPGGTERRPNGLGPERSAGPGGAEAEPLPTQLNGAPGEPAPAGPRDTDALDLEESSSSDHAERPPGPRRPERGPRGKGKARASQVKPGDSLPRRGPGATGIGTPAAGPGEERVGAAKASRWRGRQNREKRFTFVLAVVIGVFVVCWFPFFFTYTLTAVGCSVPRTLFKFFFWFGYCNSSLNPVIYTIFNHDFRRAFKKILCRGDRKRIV

[14] = molecular target: Beta-1 adrenergic receptor (Homo sapiens) (UniProt P08588); assay: Inhibition of Adrenergic beta1 at 10.0 µM in the Eurofins Panlabs Safety Screen; conditions: Compound concentration 10.0 uM
[15] = molecular target: D(2) dopamine receptor (Homo sapiens) (UniProt P14416); assay: Inhibition of Dopamine D2L at 10.0 µM in the Eurofins Panlabs Safety Screen; conditions: Compound concentration 10.0 uM
[16] = molecular target: T3, Muscarinic acetylcholine receptor M1 (Homo sapiens) (UniProt P11229); assay: Inhibition of Muscarinic M1 at 10.0 µM in the Eurofins Panlabs Safety Screen; conditions: Compound concentration 10.0 uM
T3 sequence (whole entry): T1 sequence (P11229 whole entry)

[17] = molecular target: 5-hydroxytryptamine receptor 2B (Homo sapiens) (UniProt P41595); assay: Inhibition of Serotonin (5-Hydroxytryptamine) 5-HT2B at 10.0 µM in the Eurofins Panlabs Safety Screen; conditions: Compound concentration 10.0 uM
Sequence of 5-hydroxytryptamine receptor 2B (Homo sapiens) (P41595 whole entry): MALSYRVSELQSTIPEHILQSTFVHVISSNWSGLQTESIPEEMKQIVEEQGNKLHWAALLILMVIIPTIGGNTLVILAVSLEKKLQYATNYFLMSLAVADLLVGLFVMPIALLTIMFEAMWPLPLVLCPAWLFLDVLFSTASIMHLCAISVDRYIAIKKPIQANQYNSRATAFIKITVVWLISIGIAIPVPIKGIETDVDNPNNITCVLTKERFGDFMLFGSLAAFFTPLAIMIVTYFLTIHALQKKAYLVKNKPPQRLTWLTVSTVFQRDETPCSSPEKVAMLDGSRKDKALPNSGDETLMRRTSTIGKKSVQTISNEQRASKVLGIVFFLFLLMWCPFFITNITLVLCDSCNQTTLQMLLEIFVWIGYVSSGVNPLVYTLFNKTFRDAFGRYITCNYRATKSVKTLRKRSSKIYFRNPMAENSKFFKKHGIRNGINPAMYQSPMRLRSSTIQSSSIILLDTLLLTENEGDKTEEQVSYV

[18] = molecular target: 5-hydroxytryptamine receptor 2B (Homo sapiens) (UniProt P41595); conditions: Compound concentration 10.0 uM
[19] = molecular target: 5-hydroxytryptamine receptor 5A (Homo sapiens) (UniProt P47898); conditions: Compound concentration 10.0 uM
Sequence of 5-hydroxytryptamine receptor 5A (Homo sapiens) (P47898 whole entry): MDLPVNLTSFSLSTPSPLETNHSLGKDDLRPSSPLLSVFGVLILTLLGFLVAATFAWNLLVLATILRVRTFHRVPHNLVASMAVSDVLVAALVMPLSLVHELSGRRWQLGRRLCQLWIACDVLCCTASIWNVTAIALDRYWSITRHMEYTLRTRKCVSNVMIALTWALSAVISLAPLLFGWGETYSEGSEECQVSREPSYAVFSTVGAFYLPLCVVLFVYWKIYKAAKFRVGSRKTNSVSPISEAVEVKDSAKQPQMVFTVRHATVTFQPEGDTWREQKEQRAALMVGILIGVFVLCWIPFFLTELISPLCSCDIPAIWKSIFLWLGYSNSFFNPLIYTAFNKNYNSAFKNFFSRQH

[20] = molecular target: 5-hydroxytryptamine receptor 7 (Homo sapiens) (UniProt P34969); conditions: Compound concentration 10.0 uM
Sequence of 5-hydroxytryptamine receptor 7 (Homo sapiens) (P34969 whole entry): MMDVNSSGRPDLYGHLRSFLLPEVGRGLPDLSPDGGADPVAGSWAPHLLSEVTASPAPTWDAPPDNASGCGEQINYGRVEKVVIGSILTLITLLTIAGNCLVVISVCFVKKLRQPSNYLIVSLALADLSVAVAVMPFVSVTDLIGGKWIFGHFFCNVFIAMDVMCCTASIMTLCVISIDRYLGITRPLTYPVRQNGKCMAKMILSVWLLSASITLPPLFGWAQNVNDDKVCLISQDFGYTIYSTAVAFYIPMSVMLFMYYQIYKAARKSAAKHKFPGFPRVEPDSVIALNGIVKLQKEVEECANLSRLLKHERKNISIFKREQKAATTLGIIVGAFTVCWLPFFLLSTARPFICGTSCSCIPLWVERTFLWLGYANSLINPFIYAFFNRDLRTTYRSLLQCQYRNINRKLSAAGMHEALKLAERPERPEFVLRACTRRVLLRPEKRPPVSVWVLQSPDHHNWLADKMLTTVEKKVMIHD

[21] = molecular target: D(3) dopamine receptor (Homo sapiens, UniProt P35462); conditions: Compound concentration 10.0 uM
Sequence of D(3) dopamine receptor (P35462 whole entry): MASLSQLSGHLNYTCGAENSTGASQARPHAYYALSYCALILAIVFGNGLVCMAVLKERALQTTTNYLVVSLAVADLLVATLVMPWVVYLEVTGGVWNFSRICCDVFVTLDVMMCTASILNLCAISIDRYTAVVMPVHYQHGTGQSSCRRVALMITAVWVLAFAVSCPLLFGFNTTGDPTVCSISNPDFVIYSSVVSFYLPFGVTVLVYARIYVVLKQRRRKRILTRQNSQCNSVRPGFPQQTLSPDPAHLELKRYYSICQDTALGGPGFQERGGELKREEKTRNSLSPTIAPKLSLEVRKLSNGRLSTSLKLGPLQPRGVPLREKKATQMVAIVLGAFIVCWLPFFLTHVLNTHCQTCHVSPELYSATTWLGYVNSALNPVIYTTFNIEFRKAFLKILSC

[22] = molecular target: D(1B) dopamine receptor (Homo sapiens) (UniProt P21918); conditions: Compound concentration 10.0 uM
Sequence of D(1B) dopamine receptor (Homo sapiens) (P21918 whole entry): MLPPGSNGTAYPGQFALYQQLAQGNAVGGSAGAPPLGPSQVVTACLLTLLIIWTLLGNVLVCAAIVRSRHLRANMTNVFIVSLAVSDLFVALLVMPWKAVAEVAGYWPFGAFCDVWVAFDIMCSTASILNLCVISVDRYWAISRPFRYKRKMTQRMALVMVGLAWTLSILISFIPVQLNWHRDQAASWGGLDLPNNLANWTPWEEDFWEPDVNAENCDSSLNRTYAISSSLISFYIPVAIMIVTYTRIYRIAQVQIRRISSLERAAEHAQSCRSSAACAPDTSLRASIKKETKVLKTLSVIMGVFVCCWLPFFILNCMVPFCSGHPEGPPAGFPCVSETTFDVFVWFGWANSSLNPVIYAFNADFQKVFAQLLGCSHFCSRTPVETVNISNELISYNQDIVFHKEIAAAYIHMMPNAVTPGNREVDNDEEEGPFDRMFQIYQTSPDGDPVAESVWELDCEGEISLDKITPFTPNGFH

[23] = molecular target: Beta-2 adrenergic receptor (Homo sapiens) (UniProt P07550); conditions: Compound concentration 10.0 uM
Sequence of Beta-2 adrenergic receptor (Homo sapiens) (P07550 whole entry, looked up): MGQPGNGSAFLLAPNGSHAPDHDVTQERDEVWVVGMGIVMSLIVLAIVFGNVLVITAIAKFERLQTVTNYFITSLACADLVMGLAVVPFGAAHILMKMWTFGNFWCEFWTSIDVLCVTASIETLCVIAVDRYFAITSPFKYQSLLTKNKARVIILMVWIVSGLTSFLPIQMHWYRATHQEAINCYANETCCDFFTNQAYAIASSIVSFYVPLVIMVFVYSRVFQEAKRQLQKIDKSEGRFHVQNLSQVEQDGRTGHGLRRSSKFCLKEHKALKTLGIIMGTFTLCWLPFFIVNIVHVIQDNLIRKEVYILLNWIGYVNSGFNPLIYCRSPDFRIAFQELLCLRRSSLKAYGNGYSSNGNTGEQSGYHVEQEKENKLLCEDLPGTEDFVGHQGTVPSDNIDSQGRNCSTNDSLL

[24] = molecular target: T4, Muscarinic acetylcholine receptor M4 (Homo sapiens) (UniProt P08173); conditions: Compound concentration 10.0 uM
T4 sequence (whole entry): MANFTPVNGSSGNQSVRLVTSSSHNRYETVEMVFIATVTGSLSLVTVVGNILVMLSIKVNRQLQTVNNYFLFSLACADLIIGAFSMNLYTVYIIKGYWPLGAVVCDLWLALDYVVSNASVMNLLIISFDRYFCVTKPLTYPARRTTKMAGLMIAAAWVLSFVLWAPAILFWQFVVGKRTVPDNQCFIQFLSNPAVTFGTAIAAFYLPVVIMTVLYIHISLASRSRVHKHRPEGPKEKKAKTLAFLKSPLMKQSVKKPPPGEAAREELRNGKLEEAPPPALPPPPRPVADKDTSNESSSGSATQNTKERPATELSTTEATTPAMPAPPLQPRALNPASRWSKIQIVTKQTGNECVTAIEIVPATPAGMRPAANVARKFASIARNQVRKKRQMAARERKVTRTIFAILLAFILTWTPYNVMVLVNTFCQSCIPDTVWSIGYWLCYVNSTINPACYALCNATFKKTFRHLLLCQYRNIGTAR

Sequence of Sodium-dependent dopamine transporter (Q01959 whole entry): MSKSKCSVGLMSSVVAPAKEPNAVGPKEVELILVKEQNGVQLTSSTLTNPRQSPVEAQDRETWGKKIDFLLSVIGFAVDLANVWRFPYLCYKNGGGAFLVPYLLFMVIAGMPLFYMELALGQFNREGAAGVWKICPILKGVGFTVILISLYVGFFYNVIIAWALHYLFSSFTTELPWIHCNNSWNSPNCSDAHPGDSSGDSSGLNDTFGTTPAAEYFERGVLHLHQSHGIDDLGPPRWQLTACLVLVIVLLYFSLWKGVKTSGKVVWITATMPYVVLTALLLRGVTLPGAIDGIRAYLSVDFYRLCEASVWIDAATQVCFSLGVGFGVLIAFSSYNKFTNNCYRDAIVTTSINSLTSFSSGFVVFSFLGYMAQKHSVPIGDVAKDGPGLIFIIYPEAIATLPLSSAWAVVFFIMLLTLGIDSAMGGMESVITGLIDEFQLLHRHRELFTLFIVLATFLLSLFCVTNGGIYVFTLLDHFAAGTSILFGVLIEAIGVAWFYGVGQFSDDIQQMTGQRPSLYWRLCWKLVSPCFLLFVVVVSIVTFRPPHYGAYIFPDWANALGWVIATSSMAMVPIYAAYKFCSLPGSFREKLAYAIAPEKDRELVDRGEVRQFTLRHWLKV

| Compound | Ki ([1]; read-out: Ki) [µM] | Ki ([1]; read-out: pKi (converted)) [µM] | Ki ([2]; read-out: Ki) [µM] | Ki ([2]; read-out: pKi (converted)) [µM] | inhibition [3] [%] | inhibition [4] [%] | inhibition [5] [%] | inhibition [6] [%] | inhibition [7] [%] | inhibition [8] [%] | inhibition [9] [%] | inhibition [10] [%] | inhibition [11] [%] | inhibition [12] [%] | inhibition [13] [%] | inhibition [14] [%] | inhibition [15] [%] | inhibition [16] [%] | inhibition [17] [%] | inhibition [18] [%] | further results |
| --- | --- | --- | --- | --- | --- | --- | --- | --- | --- | --- | --- | --- | --- | --- | --- | --- | --- | --- | --- | --- | --- |
| O=C1NCCCC1N1Cc2cc(C3CCN(C(=O)CCCCCN4CCC(c5ccc(Oc6nn7cnnc7c7c6CCCC7)cc5)CC4)CC3)ccc2C1=O (configuration not stated) | 4.81 | 4.47 | 2.19 | 2.19 | 20.4 | 10.6 | 11.9 | 26.1 | 15.1 | 21 | -7 | 23 | 6 | 21 | 32 | 10 | 22 | 53 | 10 | -7.97 | inhibition [19]: 14%; inhibition [20]: 32.5%; inhibition [21]: 68.3%; inhibition [22]: 10.8%; inhibition [23]: -7.69%; inhibition [24]: 76.1% |
| O=C1CCC(N2Cc3cc(C4CCN(C(=O)CCCCCN5CCC(c6ccc(Oc7nn8cnnc8c8c7CCCC8)cc6)CC5)CC4)ccc3C2=O)C(=O)N1 (configuration not stated) | 3.73 | 3.39 | 1.67 | 1.66 | 25 | 15.4 | 14.3 | 13.9 | 11.9 | 16 | -6 | 10 | 6 | 32 | 28 | 0 | 22 | 53 | 41 | 19.9 | inhibition [19]: 10.1%; inhibition [20]: 36.8%; inhibition [21]: 25.6%; inhibition [22]: 1.6%; inhibition [23]: 2.82%; inhibition [24]: 83.5% |
